Assay results published in PubChem BioAssay AID1117349.
Activity calls are given as the source filed them. The rule behind the calls is not given here.

Test system: HeLa cells, increased 2N DNA content (cell cycle)
Test: rise of 2N DNA cells, HeLa – IC50, dose response (AID 1117349)

IC50 | Compound
> 10 µM (inactive) | CCCCCCCCCCCC(=O)[O][Sn]([CH2]CCC)([CH2]CCC)[O]C(=O)CCCCCCCCCCC
> 10 µM (inactive) | CCCCCCCCCCCCCC[N+](C)(C)C
3.39 µM | C[n+]1c2cc(N)ccc2cc2ccc(N)cc21 (tested in a mixture with another compound)

Compound | IC50
Cc1ccc([N+](=O)[O-])[c]2c1[O][Hg]2 | > 10 µM (inactive)
